Reference: patent US7645864B2, “Erythromycin derivative having novel crystal structures and processes for their production” (Chugai Seiyaku Kabushiki Kaisha, priority 2001, dated 2010)

experiment: Average particle size by particle size distribution analyzer; format: physicochemical; conditions: D-form crystal
Description: The content of residual solvent may be determined in a known manner, for example, by gas chromatography. The details on gas chromatography can be found in the Japanese Pharmacopoeia, 13th Edition, published by Hirokawa Publishing Co. (1996) pp. B83-B94, the Japanese Pharmacopoeia, 14th Edition, published by Hirokawa Publishing Co. (2001) pp. B98-B114 and elsewhere. In general, gas chromatography will cause a measurement error falling within around ±1%. The compound of the present invention can also be determined for its average particle size in a known manner or using various devices that are commercially available, such as a dry particle size distribution analyzer. In general, such a particle size distribution analyzer will cause a measurement error falling within around ±5%.
In these examples and comparison examples, X-ray diffractometry was performed using a powder X-ray diffractometer RINT-1100 (Rigaku), the content of residual solvent was determined using a gas chromatograph GC-17A (Shimadzu Corp.), and the average particle size was determined using a particle size distribution analyzer RPS-95 (Seishin Enterprise Co., Ltd.).

Particle size (average particle size)	SMILES
185 μm	CC[C@H]1OC(=O)[C@H](C)[C@@H](O[C@H]2C[C@@](C)(OC)[C@@H](O)[C@H](C)O2)[C@H](C)[C@@H](O[C@@H]2O[C@H](C)C[C@H](N(C)C(C)C)[C@H]2O)[C@]2(C)CC(C)=C(O2)[C@H](C)C(=O)[C@]1(C)OC [Example 8]
163 μm	CC[C@H]1OC(=O)[C@H](C)[C@@H](O[C@H]2C[C@@](C)(OC)[C@@H](O)[C@H](C)O2)[C@H](C)[C@@H](O[C@@H]2O[C@H](C)C[C@H](N(C)C(C)C)[C@H]2O)[C@]2(C)CC(C)=C(O2)[C@H](C)C(=O)[C@]1(C)OC [Example 7]

More lines, now with the values behind:

SMILES	Particle size (average particle size)
CC[C@H]1OC(=O)[C@H](C)[C@@H](O[C@H]2C[C@@](C)(OC)[C@@H](O)[C@H](C)O2)[C@H](C)[C@@H](O[C@@H]2O[C@H](C)C[C@H](N(C)C(C)C)[C@H]2O)[C@]2(C)CC(C)=C(O2)[C@H](C)C(=O)[C@]1(C)OC [Comparison Example 2, reference compound]	61 μm
CC[C@H]1OC(=O)[C@H](C)[C@@H](O[C@H]2C[C@@](C)(OC)[C@@H](O)[C@H](C)O2)[C@H](C)[C@@H](O[C@@H]2O[C@H](C)C[C@H](N(C)C(C)C)[C@H]2O)[C@]2(C)CC(C)=C(O2)[C@H](C)C(=O)[C@]1(C)OC [Example 2]	302 μm
CC[C@H]1OC(=O)[C@H](C)[C@@H](O[C@H]2C[C@@](C)(OC)[C@@H](O)[C@H](C)O2)[C@H](C)[C@@H](O[C@@H]2O[C@H](C)C[C@H](N(C)C(C)C)[C@H]2O)[C@]2(C)CC(C)=C(O2)[C@H](C)C(=O)[C@]1(C)OC [Example 3]	197 μm
CC[C@H]1OC(=O)[C@H](C)[C@@H](O[C@H]2C[C@@](C)(OC)[C@@H](O)[C@H](C)O2)[C@H](C)[C@@H](O[C@@H]2O[C@H](C)C[C@H](N(C)C(C)C)[C@H]2O)[C@]2(C)CC(C)=C(O2)[C@H](C)C(=O)[C@]1(C)OC [Comparison Example 1, reference compound]	82 μm

experiment: not given; conditions: reported in JP 9-100291 A; cited from earlier work

SMILES	Stability compared with the A-type and C-type crystals
CC[C@H]1OC(=O)[C@H](C)[C@@H](O[C@H]2C[C@@](C)(OC)[C@@H](O)[C@H](C)O2)[C@H](C)[C@@H](O[C@@H]2O[C@H](C)C[C@H](N(C)C(C)C)[C@H]2O)[C@]2(C)CC(C)=C(O2)[C@H](C)C(=O)[C@]1(C)OC [D-type crystal]	superior in stability
